Measurements: patent publication US6362209B1, “Heterocyclic aromatic oxazole compounds and use thereof” (Japan Tobacco Inc., priority 1994, dated 2002)

Columns and labels:
cyclooxygenase-1 = cyclooxygenase-1 (Homo sapiens, UniProt P23219); test: Inhibitory action on cyclooxygenase-1 (conversion of 14C arachidonic acid to PGH2); assay type: biochemical; conditions: enzyme prepared from human platelets; preincubation 24° C. 5 minutes; read-out: IC50 COX-1
Protocol: (§1) The enzymatic activity was determined from the percent conversion of ^14C arachidonic acid into prostaglandin H2 (PGH2) and the decomposed product thereof. That is, a test sample (20 μl), an enzyme solution (20 μl) and distilled water (10 μl) were added to 100 mM Tris-HCl buffer (pH 8, 140 μl) containing hematin (2 μM) and tryptophan (5 mM), and the mixture was thoroughly stirred, which was followed by preincubation at 24° C. for 5 minutes. Then, a ^14C arachidonic acid solution (10 μl) was added and the mixture was reacted at 24° C., whereafter a solution (40 μl) of ethyl ether/methanol/1M citric acid (30/4/1) iceooled to −20° C. was added to stop the reaction. The reaction mixture was centrifuged for 5 minutes at 3,000 rpm to give an ether layer which was placed on a thin plate, and developed with ethyl ether/methanol/acetic acid (90/2/0.1) to determine percent conversion (A) from arachidonic acid to PGH2 and the decomposed product thereof.
Inhibition (%)=(1A/B)×100
(§2) An enzyme prepared from human platelets was used as an enzyme solution of cyclooxygenase-1, and an enzyme expressed by a yeast, into which cDNA of human cyclooxygenase-2 had been introduced using a kit of Invitrogen Corp., was used as an enzyme solution of cyclooxygenase-2.

[1] = system: carrageenin-induced podedema; test: Effects on carrageenin-induced podedema in rats; assay type: in vivo, male Donryu rats; conditions: oral dose one hour before carrageenin; limb volume 3 hours after carrageenin; dose inhibiting by 30% relative to control
Protocol: Experimental Example 2 (effects on carrageen in induced podedema) Carrageenin (1%, 0.05 ml) dissolved in physiological saline was subcutaneously injected to the left hindlimb of male Donryu rats to induce podedema. The degree of podedema was evaluated by measuring the volume of the limb 3 hours after carrageenin administration. A test compound (1, 3, 10 or 30 mg/kg) was orally administered one hour before carrageenin administration, and suppression thereby was studied. Inhibitory activity was expressed by the dose (ED30) of the test compound necessary for inhibiting by 30% relative to the control group.

human cyclooxygenase-2 = target: T1, human cyclooxygenase-2 (Homo sapiens, UniProt P35354); test: Inhibitory action on cyclooxygenase-2 (conversion of 14C arachidonic acid to PGH2)
T1 sequence (P35354 18-604): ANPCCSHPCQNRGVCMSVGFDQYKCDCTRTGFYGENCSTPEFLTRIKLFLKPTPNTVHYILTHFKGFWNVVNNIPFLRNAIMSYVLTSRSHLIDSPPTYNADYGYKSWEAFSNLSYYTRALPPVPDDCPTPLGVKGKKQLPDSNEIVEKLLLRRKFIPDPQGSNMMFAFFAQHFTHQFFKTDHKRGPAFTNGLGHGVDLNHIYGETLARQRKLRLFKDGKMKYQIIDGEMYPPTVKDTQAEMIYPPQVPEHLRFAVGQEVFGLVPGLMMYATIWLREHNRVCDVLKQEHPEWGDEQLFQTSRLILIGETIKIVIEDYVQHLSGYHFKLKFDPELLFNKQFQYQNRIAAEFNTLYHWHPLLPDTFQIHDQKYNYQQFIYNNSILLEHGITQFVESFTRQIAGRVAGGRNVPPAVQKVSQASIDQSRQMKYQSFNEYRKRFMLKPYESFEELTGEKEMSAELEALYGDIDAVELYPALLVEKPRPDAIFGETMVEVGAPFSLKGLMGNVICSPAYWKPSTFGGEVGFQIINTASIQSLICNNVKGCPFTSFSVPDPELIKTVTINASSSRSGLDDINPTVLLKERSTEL
Protocol: as §1
Inhibition (%)=(1A/B)×100
as §2

cyclooxygenase-1, sequence (P23219 24-599): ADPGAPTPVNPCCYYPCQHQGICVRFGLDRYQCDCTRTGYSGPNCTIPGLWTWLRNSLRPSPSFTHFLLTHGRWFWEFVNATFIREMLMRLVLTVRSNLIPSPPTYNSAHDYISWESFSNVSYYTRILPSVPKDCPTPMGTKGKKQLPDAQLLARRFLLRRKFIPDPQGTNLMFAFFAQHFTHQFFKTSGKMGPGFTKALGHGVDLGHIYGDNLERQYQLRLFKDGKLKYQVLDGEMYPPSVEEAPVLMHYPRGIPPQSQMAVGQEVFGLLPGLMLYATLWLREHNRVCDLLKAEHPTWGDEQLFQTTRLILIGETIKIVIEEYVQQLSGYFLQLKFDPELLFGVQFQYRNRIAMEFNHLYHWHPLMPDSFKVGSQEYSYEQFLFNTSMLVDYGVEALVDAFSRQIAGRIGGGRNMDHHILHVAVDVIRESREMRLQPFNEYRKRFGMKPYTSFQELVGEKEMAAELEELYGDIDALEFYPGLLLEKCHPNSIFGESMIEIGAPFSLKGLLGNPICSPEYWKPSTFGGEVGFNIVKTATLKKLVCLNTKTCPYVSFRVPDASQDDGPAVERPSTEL

SMILES | IC50 (cyclooxygenase-1) | carrageenin-induced podedema in rats, ED30 [1] | IC50 (human cyclooxygenase-2)
Cc1nc(C2CCCCC2)c(-c2ccc(S(N)(=O)=O)cc2)o1 [Control 1, reference compound] | 45000 nM |  | 
Cc1nc(C2CCCCC2)c(-c2ccc(S(N)(=O)=O)c(F)c2)o1 [Example 2, 5-(4-aminosulfonyl-3-fluorophenyl)-4-cyclohexyl-2-methyloxazole] |  | 5.5 mg/kg p.o. | 70 nM
Cc1nc(C2CCCCC2)c(-c2ccc(S(C)(=O)=O)c(F)c2)o1 [Example 3, 4-cyclohexyl-5-(3-fluoro-4-methylsulfonylphenyl)-2-methyloxazole] | > 100000 nM |  | 300 nM
Cc1nc(C2CCCCC2)c(-c2cc(F)c(S(N)(=O)=O)c(F)c2)o1 [Example 6] | > 100000 nM |  | 160 nM
Cc1nc(-c2ccc(F)cc2)c(-c2ccc(S(N)(=O)=O)c(F)c2)o1 [Example 7, 5-(4-aminosulfonyl-3-fluorophenyl)-4-(4-fluorophenyl)-2-methyloxazole] | 37000 nM |  | 30 nM
COc1ccc2c(c1)c(CC(=O)O)c(C)n2C(=O)c1ccc(Cl)cc1 [Indomethacin, reference compound] |  | 2.9 mg/kg p.o. | 
